Laboratory results reported in publication PMC12395388 (Regulatory toxicology and pharmacology : RTP, 2024).
Entries after “also recorded” stand apart in the source; their conditions may differ. Read-outs that look alike come from different tables or passages of the source.

Legend:
[1] = test system: Salmonella typhimurium TA98; test: Preincubation Ames test, strain TA98; type: cell-based; conditions: for Effectiveness of time of preincubation for most effective S9: 30 vs 60 min; for Direct-acting mutagenicity in TA98: no exogenous metabolic activation (no S9)
Ames tester strains = conditions: cited from earlier work
[2] = test system: Salmonella typhimurium tester strains TA98, TA100, TA1535, and TA1537, and Escherichia coli strain WP2 uvrA (pKM101); test: Preincubation Ames test, five tester strains; type: cell-based; conditions: for Effect of length of preincubation on positive responses: 30 min vs 60 min, over all strains
[3] = test system: Salmonella typhimurium TA1535; test: Preincubation Ames test, strain TA1535; type: cell-based; conditions: for More effective %S9 in S9 mix of more effective S9 (H or R) / Effectiveness of time of preincubation for most effective S9 / Effectiveness of hamster vs. rat S9s for each positive strain: strain TA1535; for More effective %S9 in S9 mix of more effective S9 (H or R): 10% vs 30% S9 in the S9 mix; for Effectiveness of time of preincubation for most effective S9: 30 vs 60 min; for Effectiveness of hamster vs. rat S9s for each positive strain: H = hamster liver S9, R = rat liver S9; for Mutagenic response in TA1535: any activation condition and preincubation time
[4] = cited from earlier work
[5] = test system: E. coli WP2 uvrA (pKM101); test: Preincubation Ames test, strain WP2 uvrA; type: cell-based, Escherichia coli; conditions: for Effectiveness of time of preincubation for most effective S9 / Effectiveness of hamster vs. rat S9s for each positive strain: strain WP2 uvrA (pKM101); for Effectiveness of time of preincubation for most effective S9: 30 vs 60 min; for Effectiveness of hamster vs. rat S9s for each positive strain: H = hamster liver S9, R = rat liver S9; for Mutagenic response in WP2 uvrA (pKM101): any activation condition and preincubation time
[6] = test system: Salmonella typhimurium TA100; test: Preincubation Ames test, strain TA100; type: cell-based; conditions: for Effectiveness of time of preincubation for most effective S9: 30 vs 60 min; for Effectiveness of hamster vs. rat S9s for each positive strain: H = hamster liver S9, R = rat liver S9
[7] = published by FDA as of September 4, 2024, ref FDA, 2024a; cited from earlier work
[8] = PC1 most potent, PC5 least potent; ref FDA, 2024a; cited from earlier work
[9] = test system: CHO, V79, L5178Y/Tk+/−, TK6, HepaRG cells; conditions: cell lines as named in the value; ref as given in Table 2 Notes; cited from earlier work
[10] = test system: Salmonella typhimurium TA1537; test: Preincubation Ames test, strain TA1537; conditions: strain TA1537; 30 vs 60 min
[11] = listed as N-nitroso-N-ethylaniline
[12] = published/posted results, ref representative Ames references of Table 2
[13] = with S9 activation, listed as N-nitroso-propranolol

Compound	Effectiveness of time of preincubation for most effective S9 [3]	Effectiveness of time of preincubation for most effective S9 [5]	Effectiveness of time of preincubation for most effective S9 ([6]; strain TA100)	AI limit [7] [ng/day]	CPCA Potency Category (PC) [8]	other results
CN(CCC(Oc1ccc(C(F)(F)F)cc1)c1ccccc1)N=O (centres unmarked) [NDSRI-22, N-Methyl-N-[3-phenyl-3-[4-(trifluoromethyl)phenoxy]propyl]nitrous amide]	60min = 30min	30min >60min	30min only			More effective %S9 in S9 mix of more effective S9 (H or R) ([1]; strain TA98, 10% vs 30% S9 in the S9 mix): 30% only; Effectiveness of time of preincubation for most effective S9 ([1]; strain TA98): 30min only; Effectiveness of hamster vs. rat S9s for each positive strain ([1]; strain TA98, H = hamster liver S9, R = rat liver S9): H only; Ames response (all S9-mediated except where noted) (Ames tester strains): Positive; Effect of length of preincubation on positive responses ([2]; listed as N-nitroso-fluoxetine): greater mutagenic responses with 30-min preincubations than with 60-min preincubations; More effective %S9 in S9 mix of more effective S9 (H or R) [3]: 30% only; Effectiveness of hamster vs. rat S9s for each positive strain [3]: H only; Mutagenicity in TGR assay ([4]; in vivo): mutagenic in rat TGR assay; More effective %S9 in S9 mix of more effective S9 (H or R) ([6]; strain TA100, 10% vs 30% S9 in the S9 mix): 30% only; Effectiveness of hamster vs. rat S9s for each positive strain ([6]; strain TA100): H only
CN(C[C@H](O)c1cccc(O)c1)N=O [NDSRI-13, N-[(2R)-2-Hydroxy-2-(3-hydroxyphenyl)ethyl)-N-methylnitrous amide]				100	PC2	
O=NN1CCN(C2CCCC2)CC1 [SM-10, 1-Cyclopentyl-4-nitrosopiperazine]	60min = 30min	60min = 30min	30min ≥60min	400	PC3	Effectiveness of hamster vs. rat S9s for each positive strain [5]: H only; Mutagenicity/genotoxicity in mammalian cells in vitro [9]: Genotoxic in HepaRG cells ([Seo et al., 2023])
C[C@H]1CN(N=O)CCc2ccc(Cl)cc21 [NDSRI-14, (5R)-7-Chloro-5-methyl-3-nitroso-1,2,4,5-tetrahydro-3-benzazepine]	60min = 30min	60min = 30min	60min = 30min			Effectiveness of time of preincubation for most effective S9 ([1]; strain TA98): 60min = 30min
CN(CCC=C1c2ccccc2CCc2ccccc21)N=O [NDSRI-18, N-Methyl-N-[3-(2-tricyclo[9.4.0.03,8]pentadeca-1 (15),3,5,7,11,13-hexaenylidene)propyl]nitrous amide]	60min = 30min	60min = 30min	60min = 30min			
O=NN(c1ccccc1CC(=O)O)c1c(Cl)cccc1Cl [NDSRI-19, 2-[2-(2,6-Dichloro-N-nitrosoanilino)phenyl]acetic acid]				1500		
CCN(N=O)C(C)C [SM-3, N-Ethyl-N-propan-2-ylnitrous amide]	60min = 30min	60min = 30min		400	PC3	Mutagenicity/genotoxicity in mammalian cells in vitro [9]: Genotoxic in HepaRG, TK6 cells ([Li et al., 2022]; [Seo et al., 2023])
CCN(N=O)c1ccccc1 [SM-8, N-Ethyl-N-phenylnitrous amide]		60min ≥ 30min				Ames response (all S9-mediated except where noted) (Ames tester strains): Positive only with comutagen; Effect of length of preincubation on positive responses [2]: benefited from a preincubation of 60 min compared with 30 min; Mutagenic response in TA1535 [3, 11]: negative; Mutagenic response in TA1535 ([3]; listed as NEPA): not positive; Mutagenic response in WP2 uvrA (pKM101) [5, 11]: positive only; Mutagenic response in WP2 uvrA (pKM101) ([5]; listed as NEPA): mutagenic
CC(C)N(CC(O)COc1cccc2ccccc12)N=O (centres unmarked) [NDSRI-17, N-(2-Hydroxy-3-naphthalen-1-yloxypropyl)-N-propan-2-ylnitrous amide]	60min = 30min		60min = 30min	1500	PC4	Direct-acting mutagenicity in TA98 [1]: b Direct acting mutagen in TA98.; Direct-acting mutagenicity in TA98 ([1]; listed as N-nitroso-propranolol): direct acting mutagen; also recorded: direct-acting mutagenicity of N-nitroso-propranolol was limited to TA98; Effectiveness of time of preincubation for most effective S9 ([1]; strain TA98): 60min = 30min; Ames response (all S9-mediated except where noted) (Ames tester strains; [12]): Positive; direct-acting in TA98; S9-mediated mutagenicity in TA1535 [3, 13]: mutagenic; S9-mediated mutagenicity in TA100 [6, 13]: mutagenic
CC(C)N(N=O)C(C)C [SM-5, N,N-Di(propan-2-yl)nitrous amide]	60min = 30min			1500	PC5	Activation condition required for positive responses ([2]; no S9, 10% and 30% rat or hamster liver S9, all strains, listed as NDIPA): positives were seen only with one strain (TA1535) and under one activation condition (preincubation with 30% hamster S9 mixes); also recorded: dependent upon preincubation with 30% hamster S9; also recorded: exclusively mutagenic with hamster liver S9; Mutagenic response in TA1535 [3]: only positive strain; More effective %S9 in S9 mix of more effective S9 (H or R) [3]: 30% only; Effectiveness of hamster vs. rat S9s for each positive strain [3]: H only
O=NN1CC2CC(C1)c1cc3nccnc3cc12 [NDSRI-15, 8-Nitroso-7,8,9, 10-tetrahydro-6H-6, 10-methanoazepino[4,5-g]quinoxaline]	60min ≥30min	60min = 30min	60min = 30min	400	PC3	Effectiveness of time of preincubation for most effective S9 ([1]; strain TA98): 60min ≥30min; Effect of length of preincubation on positive responses [2]: benefited from a preincubation of 60 min compared with 30 min; Effectiveness of time of preincubation for most effective S9 [10]: 60min ≥30min; Effectiveness of hamster vs. rat S9s for each positive strain ([6]; strain TA100): H only
CN(CCOC(c1ccccc1)c1ccccc1)N=O [NDSRI-16, N-(2-(Benzhydryloxy)ethyl)-N-methylnitrous amide]	60min = 30min	60min >30min	60min = 30min			Effect of length of preincubation on positive responses [2]: possibly N-nitroso-desmethyl-diphenhydramine benefited from a preincubation of 60 min compared with 30 min
CCCCCCOC(=O)NC(=N)c1ccc(N(Cc2nc3cc(C(=O)N(CCC(=O)OCC)c4ccccn4)ccc3n2C)N=O)cc1 [NDSRI-29, Ethyl 3-[[2-[[4-(N-hexoxycarbonylcarbamimidoyl)-N-nitrosoanilino]methyl]-1-methylbenzimidazole-5-carbonyl]-pyridin-2-ylamino]propanoate]				400	PC3	
CC(C)[C@H](C(=O)O)N(Cc1ccc(-c2ccccc2-c2nn[nH]n2)cc1)N=O [NDSRI-25, (2R)-3-Methyl-2-[nitroso-[[4-[2-(2H-tetrazol-5-yl)phenyl]phenyl]methyl]amino]butanoic acid]						Ames response (all S9-mediated except where noted) (Ames tester strains): Negative; Mutagenicity in TGR assay ([4]; in vivo): Also negative in mouse TGR assay ([Glowienke et al., 2022])
CN(CCC(Oc1cccc2ccccc12)c1cccs1)N=O (centres unmarked) [NDSRI-20, N-Methyl-N-(3-naphthalen-1-yloxy-3-thiophen-2-ylpropyl) nitrous amide]	60min = 30min	60min = 30min	30min >60min	100		Ames response (all S9-mediated except where noted) (Ames tester strains; [12]): Positive; Mutagenicity in TGR assay ([4]; species as in value, ref as given in Table 2 Notes): Interim AI limit currently in force; mutagenic in rat TGR assay ([Jolly et al., 2024])
CN(N=O)C1CCC(c2ccc(Cl)c(Cl)c2)c2ccccc21 (centres unmarked) [NDSRI-21, N-(4-(3,4-Dichlorophenyl)-1,2,3,4-tetrahydronaphthalen-1-yl)-N-methylnitrous amide]		30min >60min		100	PC2	Effect of length of preincubation on positive responses [2]: greater mutagenic responses with 30-min preincubations than with 60-min preincubations; Mutagenic response in TA1535 ([3]; listed as N-nitroso-sertraline): negative; also recorded: not positive; Mutagenic response in WP2 uvrA (pKM101) ([5]; listed as N-nitroso-sertraline): positive only; also recorded: mutagenic; Effectiveness of hamster vs. rat S9s for each positive strain [5]: H only
